Data as given in patent publication US5538981A, “Tetrahydro-pyrido-indole” (Eli Lilly and Company, priority 1995, dated 1996).
Where a name gives a salt, the structure may show the parent alone.

Columns and labels:
[1] = biological target: T1, 5-HT1c receptor (Bos taurus, UniProt A0AAA9SBU1); assay: 5-HT1c receptor radioligand binding displacement assay ([3H]mesulergine, choroid plexus); set-up: species or system beef; conditions: beef choroid plexus; tritiated mesulergine 2.0 nM; pH 7.4; 37° C., 15 min
T1 construct: natural pool of RNA-edited forms
T1 sequence (A0AAA9SBU1 33-457): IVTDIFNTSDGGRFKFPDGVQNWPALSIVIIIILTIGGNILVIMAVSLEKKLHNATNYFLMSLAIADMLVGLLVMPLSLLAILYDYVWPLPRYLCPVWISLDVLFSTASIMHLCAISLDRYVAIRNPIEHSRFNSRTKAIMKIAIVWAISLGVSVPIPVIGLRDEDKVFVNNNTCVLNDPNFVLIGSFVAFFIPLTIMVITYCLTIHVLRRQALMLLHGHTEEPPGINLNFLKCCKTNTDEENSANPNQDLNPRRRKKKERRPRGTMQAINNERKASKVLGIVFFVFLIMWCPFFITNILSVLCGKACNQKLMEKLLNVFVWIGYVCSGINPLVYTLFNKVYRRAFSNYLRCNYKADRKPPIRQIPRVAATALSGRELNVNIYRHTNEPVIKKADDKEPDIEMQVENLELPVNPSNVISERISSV
Protocol: (§1) Beef brain was removed immediately after slaughter, and choroid plexus were dissected over ice. […] The brain of each was immediately removed and the cerebral cortex was dissected over ice. Tissues were homogenized in 9 volumes of 0.32 mol/L sucrose and centrifuged at 1,000×g for 10 minutes. The supernatant was centrifuged at 17,000×g for 20 minutes. The pellet was suspended in 100 volumes of 50 mM Tris-HCL (pH7.4), incubated at 37° C. for 10 minutes and centrifuged at 50,000×g for 10 minutes, and the process was repeated three times. The final pellets were frozen at -70° C. and used within 2 weeks. Pellets were rehydrated with physiological buffer prior to use.
(§2) For 5-HT1c receptor assays increasing concentrations of experimental compound, 50 mM Tris HCl buffer pH[7.4], and tritiated mesulergine (2.0 nM) (^3 H ligand) were combined in polystyrene tubes at room temperature. The reaction was initiated by the addition of the resuspended choroid plexus tissue which had been preincubated at 37° C. for 20 minutes. The reaction mixture was incubated in a 37° C. water bath for 15 minutes.
(§3) The reactions were terminated by rapid filtration, (Brandel Cell Harvestor), through Whatman GF/B glass filters that had been presoaked in Tris buffer pH [7.4]. The filters were then washed 2 times with 5 ml of ice cold Tris buffer pH [7.4]. Washed filters were placed in scintillation vials and 10 ml RedySolv, (Brandel), was added and samples were counted in a Searle D-300 beta counter. Means and standard error statistics were calculated for triplicate experimental determinations in certain cases. Mean values were obtained from three or more separate determinations. The incubation time for the reaction mixture was 15 minutes at 37° C.

[2] = biological target: T2, 5-HT2 receptor (Rattus norvegicus, UniProt P14842); assay: 5-HT2 receptor radioligand binding displacement assay ([3H]ketanserin, cerebral cortex); set-up: species or system rat (male Sprague-Dawley); conditions: tritiated ketanserin 1 nM, pH 7.4, 37° C., 30 min, values over 100 nM accumulated before concentration range was reduced to 0.1 to 100 nM
T2 construct: The reaction was initiated by the addition of the resuspended rat cerebral cortex tissue; tissue Harlan Industries, Cumberland, Ind; (animals); host or cells: cerebral cortex of male Sprague-Dawley rats, washed membranes
Protocol: The assays were conducted by the following procedures.
5-HT1c selective compounds can be identified using the following biological assay procedures. Compounds having a selective affinity for the 5-HT1c receptor have a low IC50 in the 5-HT1c receptor assay and a higher IC50 in the 5-HT2 receptor assay.
I. Biological Reagent Preparation.
Beef brain was removed immediately after slaughter, and choroid plexus were dissected over ice. Male Sprague-Dawley rats weighing 125-150 g (Harlan Industries, Cumberland, Ind.) were killed by decapitation. The brain of each was immediately removed and the cerebral cortex was dissected over ice. Tissues were homogenized in 9 volumes of 0.32 mol/L sucrose and centrifuged at 1,000×g for 10 minutes. The supernatant was centrifuged at 17,000×g for 20 minutes. The pellet was suspended in 100 volumes of 50 mM Tris-HCL (pH7.4), incubated at 37° C. for 10 minutes and centrifuged at 50,000×g for 10 minutes, and the process was repeated three times. The final pellets were frozen at -70° C. and used within 2 weeks. Pellets were rehydrated with physiological buffer prior to use.
Radioligand binding assays for 5-HT1c and 5-HT2 receptors were conducted according to described methods. The assays can be conducted as described by Hoyer D., Functional correlates of serotonin 5-HT1 recognition sites, J. Receptor Res 8, 59-81 (1988) and Hoyer D., Engel G., Kalkman HO Molecular pharmacology of 5-HT1 and 5-HT2 recognition sires in rat and pig brain membranes: Radio-ligand binding studies with [^3 H]5-HT, [^3 H]8-OH-DPAT, (-) [^125 I] iodocyanopindolol, [^3 H]mesulergine and [^3 H]ketanserin, Eur. J. Pharmacol. 118, 13-23 (1985).
For 5-HT2 receptor assays increasing concentrations of experimental compound, 50 mM Tris HCl buffer pH [7.4], and tritiated ketanserin (1 nM) (^3 H ligand) were combined in polystyrene tubes at room temperature. The reaction was initiated by the addition of the resuspended rat cerebral cortex tissue which had been preincubated at 37° C. for 20 minutes. The reaction mixture was incubated in a 37° C. water bath for 30 minutes.
The above assays were modified after a number of compounds had been screened to accomodate the unexpectedly high potency of the compounds of this invention in the 5-HT1c assay. The concentration range of the experimental compound in the assays was changed from [0.1 to 1000 (nM)] to [0.1 to 100 (nM)] to optimize the use of reagents and analysis time.
The reactions were terminated by rapid filtration, (Brandel Cell Harvestor), through Whatman GF/B glass filters that had been presoaked in Tris buffer pH [7.4]. The filters were then washed 2 times with 5 ml of ice cold Tris buffer pH [7.4]. Washed filters were placed in scintillation vials and 10 ml RedySolv, (Brandel), was added and samples were counted in a Searle D-300 beta counter. Means and standard error statistics were calculated for triplicate experimental determinations in certain cases. Mean values were obtained from three or more separate determinations. The incubation time for the reaction mixture was […] at 37° C.
The results of the evaluation of certain compounds of the present invention in the 5-HT1c and 5-HT2 binding assays are set forth below in Table II.

[3] = tested on: 5-HT1c receptor; assay: 5-HT1c receptor radioligand binding displacement assay ([3H]mesulergine, choroid plexus); set-up: species or system beef; conditions: 5-HT1c versus 5-HT2, from Table II
Protocol: as §1, §2, §3

T2 sequence (P14842 whole entry): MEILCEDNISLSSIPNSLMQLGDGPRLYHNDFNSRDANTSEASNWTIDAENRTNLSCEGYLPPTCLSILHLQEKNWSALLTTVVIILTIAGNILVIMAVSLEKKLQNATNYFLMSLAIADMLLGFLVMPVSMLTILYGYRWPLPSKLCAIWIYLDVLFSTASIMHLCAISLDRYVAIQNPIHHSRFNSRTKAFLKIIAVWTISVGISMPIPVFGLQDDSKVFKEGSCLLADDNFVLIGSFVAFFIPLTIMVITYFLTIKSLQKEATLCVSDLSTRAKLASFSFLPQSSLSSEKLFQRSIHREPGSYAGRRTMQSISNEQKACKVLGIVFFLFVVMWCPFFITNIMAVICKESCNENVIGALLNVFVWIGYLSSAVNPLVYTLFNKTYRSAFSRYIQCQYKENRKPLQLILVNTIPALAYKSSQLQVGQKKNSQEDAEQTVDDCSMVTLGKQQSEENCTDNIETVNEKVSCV

| SMILES | IC50 [1] | IC50 [2] | 5-HT1c selectivity (low IC50 in 5-HT1c assay, higher IC50 in 5-HT2 assay) [3] |
| --- | --- | --- | --- |
| Brc1cccc2c3c([nH]c12)C(Cc1cccc2ccccc12)NCC3 (racemic) [Example 6, (±) 8-bromo-1-(1-naphthalenylmethyl)-1,2,3,4-tetrahydro-9H-pyrido[3,4-b]indolehydrochloride] | 13.2 nM | 40 nM |  |
| c1ccc2c(CC3NCCc4c3[nH]c3c4ccc4ccccc43)cccc2c1 (racemic) [Example 14, (±) 7,8,9,10-tetrahydro-10-(1-naphthalenylmethyl)-11H-benzo[g]pyrido[3,4-b]indole] | 61 nM | > 100 nM |  |
| CC(C)c1ccc2[nH]c3c(c2c1)CCNC3C(C)c1cccc2ccccc12 (racemic) [Example 4, hydrochloride] | 14 nM | > 100 nM |  |
| Brc1ccc2[nH]c3c(c2c1)CCNC3Cc1cccc2ccccc12 (racemic) [Example 9, (±) 6-bromo-1-(1-naphthalenylmethyl)-1,2,3,4-tetrahydro-9H-pyrido[3,4-b]indole] | 27 nM | 87 nM |  |
| Cc1ccc2[nH]c3c(c2c1)CCN(C)C3Cc1cccc2ccccc12 (racemic) [Example 12, (±) 2,6-dimethyl-1-(1-naphthalenylmethyl)-1,2,3,4-tetrahydro-9H-pyrido[3,4-b]indole hydrochloride] | 54 nM | > 100 nM |  |
| Cc1ccc2[nH]c3c(c2c1)CCNC3Cc1cccc2ccccc12 (racemic) [Example 5, (±) 6-methyl-1-(1-naphthalenylmethyl)-1,2,3,4-tetrahydro-9H-pyrido[3,4-b]indole hydrochloride] | 30 nM | 267 nM |  |
| CC(C)(C)c1ccc2[nH]c3c(c2c1)CCNC3Cc1cccc2ccccc12 (racemic) [Example 15, (±) 6-(1,1-dimethylethyl)-1,2,3,4-tetrahydro-1-(1-naphthalenylmethyl)-9H-pyrido[3,4b]indole] | 11 nM | > 100 nM | particularly 5-HT1c selective |
| Cc1ccc2[nH]c3c(c2c1)CCNC3C(C)c1cccc2ccccc12 (racemic) [Example 3, (±) 6-methyl-1-(1-naphthalenyl-1-ethyl)-1,2,3,4-tetrahydro-9H-pyrido[3,4-b]indole] | 6 nM | > 100 nM |  |
| CC(C)c1ccc2[nH]c3c(c2c1)CCNC3Cc1cccc2ccccc12 (racemic) [Example 16, (±) 6-(1-methylethyl)-1,2,3,4-tetrahydro-1-(1-naphthalenylmethyl)-9H-pyrido[3,4b]indole] | 9 nM | > 100 nM | particularly 5-HT1c selective |
| COc1ccc(CC2NCCc3c2[nH]c2ccc(C)cc32)c2ccccc12 (racemic) [Example 1, (±) 6-methyl-1-(1-(4-methoxynaphthalenyl)methyl)-1,2,3,4-tetrahydro-9H-pyrido[3,4-b]indole hydrochloride] | 6.4 nM | 56.1 nM |  |
| Cc1ccc2c3c([nH]c2c1Br)C(Cc1cccc2ccccc12)NCC3 (racemic) [Example 10, (±) 7-methyl-8-bromo-1-(1-naphthalenylmethyl)-1,2,3,4-tetrahydro-9H-pyrido[3,4-b]indole hydrochloride] | 44 nM | 142 nM |  |
| Cc1cc(Br)c2[nH]c3c(c2c1)CCNC3Cc1cccc2ccccc12 (racemic) [Example 7, (±) 6-methyl-8-bromo-1-(1-naphthalenylmethyl)-1,2,3,4-tetrahydro-9H-pyrido[3,4-b]indole] | 60 nM | 247 nM |  |
| Cc1ccc2c(c1)c1c(n2C)C(Cc2cccc3ccccc23)NCC1 (racemic) [Example 17, (±) 6,9-dimethyl-1,2,3,4-tetrahydro-1-(1-naphthalenylmethyl)-9H-pyrido[3,4-b]indole hydrochloride] | 23 nM | > 100 nM |  |
| COc1cccc2c3c([nH]c12)C(Cc1cccc2ccccc12)NCC3 (racemic) [Example 8, (±) 8-methoxy-1-(1-naphthalenylmethyl)-1,2,3,4-tetrahydro-9H-pyrido[3,4-b]indole] | 63 nM | 65 nM |  |
| Cc1ccc2[nH]c3c(c2c1F)CCNC3Cc1cccc2ccccc12 (racemic) [Example 13, (±) 5-fluoro-6-methyl-1-(1-naphthalenylmethyl)-1,2,3,4-tetrahydro-9H-pyrido[3,4-b]indole] | 16 nM | > 100 nM |  |
| Cc1ccc2[nH]c3c(c2c1)CCN[C@H]3Cc1cccc2ccccc12 [Example 18, (-)-(S)-6-methyl-1,2,3,4-tetrahydro-1-(1-naphthalenylmethyl)-9H-pyrido[3,4-b]indole hydrochloride] | < 100 nM | 108 nM |  |
| c1ccc2c(CC3NCCc4c3[nH]c3ccc(C5CCCCC5)cc43)cccc2c1 (racemic) [Example 11, (±) 6-cyclohexyl-1-(1-naphthalenylmethyl)-1,2,3,4-tetrahydro-9H-pyrido[3,4-b]indole hydrochloride] | 189 nM | > 100 nM |  |
